Where two headings read alike, the source gives them in different places.
Key:
[1] = test system: inflammatory hyperalgesia induced by brewer's yeast in rats; test: Test 5: inflammatory hyperalgesia induced by brewer's yeast in rats (analgesic activity); type: in vivo, male Sprague Dawley rats
Procedure: Inflammatory hyperalgesia induced by brewer's yeast in rats
Ten male Sprague Dawley rats were used per group. 0.1 Ml of 5% brewer's yeast suspended in 0.5% methylcellulose was injected into the right hind paw, The pain threshold was determined 3 hours after yeast injection, by applying pressure to the foot and reading the pressure at which the rat withdrew the foot.
The drugs were given orally 2 hours after yeast infection. The pain threshold in the treated animals was compared with that in the control animals.

[2] = test system: writhing syndrome induced by acetic acid in mice; test: Test 2: writhing syndrome induced by acetic acid in mice (analgesic activity); type: in vivo, male ddY mice; settings: Mus musculus
Procedure: Writhing syndrome induced by acetic acid in mice Ten male ddY mice were used per group. Writhing syndrome was produced by an intraperitoneal injection of 20 ml/kg of 0.6% acetic acid in mice. The animals were observed from 3 to 13 minutes after acetic acid injection, and a total number of writhing episodes was recorded. The drugs were given orally 1 hour before acetic acid injection. The frequency of writhing in the treated animals was compared with that in the control animals.

[3] = test system: pyrexia induced by brewer's yeast in rats; test: Test 3: anti-pyretic activity, brewer's yeast-induced pyrexia in rats; type: in vivo, male Sprague-Dawley rats; settings: Rattus norvegicus, oral
Procedure: Anti-pyretic activity Ten male Sprague-Dawley rats were used per group. Pyrexia was induced by SC injection of 10 ml/kg of 5% brewer's yeast suspension. The drugs were given orally […] after yeast injection. Rectal temperature was measured 1 and 2 hours after administration of drugs, and the difference of rectal temperature from that before yeast injection was calculated.

[4] = oral, 1 hour before acetic acid injection, number of writhing episodes 3 to 13 minutes after, read-out: ED50
[5] = rectal temperature 1 hour after administration, read-out: ED50 (1 hr)
[6] = rectal temperature 2 hours after administration, read-out: ED50 (2 hr)

## CS(=O)(=O)Nc1ccc(C#N)cc1Oc1ccc(F)cc1F.[Na] [Example 73, 4'-cyano-2'-(2,4-difluorophenoxy)methanesulfonanilide sodium salt]
[1]; po
  ED30: 1.8 mg/kg

## CS(=O)(=O)Nc1ccc(C#N)cc1Oc1ccc(F)cc1F [Example 3, 4'-Cyano-2'-(2,4-difluorophenoxy)methanesulfonanilide]
[2]; [4]
  ED50: 2.4 mg/kg

## COc1ccc2c(c1)c(CC(=O)O)c(C)n2C(=O)c1ccc(Cl)cc1 [Indomethacin, reference compound]
[2]; po
  ED50: 1.6 mg/kg
[3]; [5]
  ED50: 4.6 mg/kg
[3]; [6]
  ED50: 2.6 mg/kg
[1]; oral, 2 hours after yeast injection, pain threshold 3 hours after yeast injection, read-out: ED30
  ED30: 5.1 mg/kg

## CC(=O)c1ccc(NS(C)(=O)=O)c(Oc2ccc(F)cc2F)c1 [Example 1, 4'-acetyl-2'-(2,4-difluorophenoxy)methanesulfonanilide]
[2]; [4]
  ED50: 14 mg/kg
[3]; [5]
  ED50: 10 mg/kg
[3]; [6]
  ED50: 6.8 mg/kg

## CC(=O)c1ccc(NS(C)(=O)=O)c(Oc2ccc(F)cc2Cl)c1 [Example 25, 4'-Acetyl-2'-(2-chloro-4-fluorophenoxy)methanesulfonanilide]
[2]; [4]
  ED50: 9.6 mg/kg

## CC(=NNC(N)=O)c1ccc(NS(C)(=O)=O)c(Oc2ccc(F)cc2F)c1 [Example 40, 3'-(2,4-difluorophenoxy)-4'-methanesulfonamidoacetophenone semicarbazone]
[2]; [4]
  ED50: 18 mg/kg

## Cc1cc(NS(C)(=O)=O)c(Oc2ccc(F)cc2F)cc1C#N [Example 20, 4'-Cyano-2'-(2,4-difluorophenoxy)-5'-methylmethanesulfonanilide]
[2]; [4]
  ED50: 55.8 mg/kg

Reference: patent publication US4866091A, “Alkanesulfonanilide derivatives, processes for preparation thereof and pharmaceutical composition comprising the same” (Fujisawa Pharmaceutical Co., Ltd., priority 1986, dated 1989)
